Laboratory results from ChEMBL document CHEMBL4616622, “HSP70 induction by bleomycin metal core analogs” (Bioorg Med Chem Lett, 2020).
Active and inactive are the calls of the source. No cut-off for these calls is given here.

Tests used:
[1] = test system: PC-12; experiment: Induction of HSP70 expression in rat PC12 cells at 10 uM incubated for 4 hrs by Western blot analysis; format: functional, cell-based
[2] = test system: PC-12; experiment: Induction of HSP70 expression in rat PC12 cells at 5 to 30 uM incubated for 4 hrs by Western blot analysis; format: functional, cell-based
[3] = test system: PC-12; experiment: Induction of HSP70 expression in rat PC12 cells at 10 uM incubated for 4 hrs in presence of human betaNGF by Western blot analysis; format: functional, cell-based
[4] = test system: PC-12; experiment: Induction of HSP70 expression in rat PC12 cells at 10 uM incubated for 24 hrs by Western blot analysis; format: functional, cell-based
[5] = test system: PC-12; experiment: Induction of HSP70 in rat PC12 cells assessed as upregulation of HSP70 mRNA at 10 uM incubated for 4 hrs by qRT-PCR analysis; format: cell-based
[6] = test system: PC-12; experiment: Induction of HSP70 expression in rat PC12 cells at 10 uM by Western blot analysis; format: functional, cell-based; details: TDE = time-dependent effect
[7] = test system: PC-12; experiment: Induction of HSP70 expression in rat PC12 cells at 10 to 20 uM incubated for 4 hrs by Western blot analysis; format: functional, cell-based
[8] = test system: PC-12; experiment: Induction of HSP70 expression in rat PC12 cells at 7.5 uM incubated for 4 hrs by Western blot analysis; format: functional, cell-based
[9] = test system: PC-12; experiment: Cytotoxicity against rat PC12 cells assessed as reduction in cell viability at 30 uM incubated for 1 day by MTT assay relative to control; format: cell-based; details: pc-12, 24 h

Compound	Activity [1]	further results
COC(=O)[C@H](Cc1c[nH]cn1)NCc1cc(N(C)C)cc(CN[C@@H](Cc2cn(Cc3ccccc3)cn2)C(=O)OC)n1	inactive	
COC(=O)[C@H](Cc1cn(C(c2ccccc2)(c2ccccc2)c2ccccc2)cn1)NCc1cc(N(C)C)cc(CN[C@@H](Cc2cn(C(c3ccccc3)(c3ccccc3)c3ccccc3)cn2)C(=O)OC)n1	inactive	
TEPRENONE	inactive	
COC(=O)[C@H](Cc1c[nH]cn1)NCc1cccc(CN[C@@H](Cc2cn(C(c3ccccc3)(c3ccccc3)c3ccccc3)cn2)C(=O)OC)c1	inactive	
COC(=O)[C@H](Cc1cn(C)cn1)NCc1cc(N(C)C)cc(CN[C@@H](Cc2cn(C)cn2)C(=O)OC)n1	inactive	
BLEOMYCIN	inactive	Activity [2]: inactive
COC(=O)[C@H](Cc1c[nH]cn1)NCc1cccc(CN[C@@H](Cc2cn(C(c3ccccc3)(c3ccccc3)c3ccccc3)cn2)C(=O)OC)n1	Active	Activity [3]: Active
COC(=O)[C@H](Cc1cn(Cc2ccccc2)cn1)NCc1cc(N(C)C)cc(CN[C@@H](Cc2cn(Cc3ccccc3)cn2)C(=O)OC)n1	inactive	
COC(=O)[C@H](Cc1c[nH]cn1)NCc1cc(N(C)C)cc(CN[C@@H](Cc2cn(C(c3ccccc3)(c3ccccc3)c3ccccc3)cn2)C(=O)OC)n1	Active	Activity [4]: Active; Activity [5]: Active; Activity [6]: Tde; Activity [3]: Active; Activity [7]: Active; Activity [8]: inactive; Activity [9]: > 50%
COC(=O)[C@H](Cc1c[nH]cn1)NCc1cc(N(C)C)cc(CN[C@@H](Cc2cn(C)cn2)C(=O)OC)n1	inactive	
